According to ChEMBL document CHEMBL3877252, “Fluorescein hydrazones: A series of novel non-intercalative topoisomerase IIα catalytic inhibitors induce G1 arrest and apoptosis in breast and colon cancer cells” (Eur J Med Chem, 2017):
The source made the active and inactive calls. The calls are words filed in the database; no cut-off is given here.

Tests used:
[1] = biological target: T1, DNA topoisomerase 1 (Homo sapiens) (UniProt P11387); assay: Inhibition of human topoisomerase-1 assessed as inhibition of relaxation of supercoiled pBR322 plasmid DNA at 100 uM measured after 1 hr by ethidium bromide staining based agarose gel electrophoresis relative to control
T1 sequence (whole entry): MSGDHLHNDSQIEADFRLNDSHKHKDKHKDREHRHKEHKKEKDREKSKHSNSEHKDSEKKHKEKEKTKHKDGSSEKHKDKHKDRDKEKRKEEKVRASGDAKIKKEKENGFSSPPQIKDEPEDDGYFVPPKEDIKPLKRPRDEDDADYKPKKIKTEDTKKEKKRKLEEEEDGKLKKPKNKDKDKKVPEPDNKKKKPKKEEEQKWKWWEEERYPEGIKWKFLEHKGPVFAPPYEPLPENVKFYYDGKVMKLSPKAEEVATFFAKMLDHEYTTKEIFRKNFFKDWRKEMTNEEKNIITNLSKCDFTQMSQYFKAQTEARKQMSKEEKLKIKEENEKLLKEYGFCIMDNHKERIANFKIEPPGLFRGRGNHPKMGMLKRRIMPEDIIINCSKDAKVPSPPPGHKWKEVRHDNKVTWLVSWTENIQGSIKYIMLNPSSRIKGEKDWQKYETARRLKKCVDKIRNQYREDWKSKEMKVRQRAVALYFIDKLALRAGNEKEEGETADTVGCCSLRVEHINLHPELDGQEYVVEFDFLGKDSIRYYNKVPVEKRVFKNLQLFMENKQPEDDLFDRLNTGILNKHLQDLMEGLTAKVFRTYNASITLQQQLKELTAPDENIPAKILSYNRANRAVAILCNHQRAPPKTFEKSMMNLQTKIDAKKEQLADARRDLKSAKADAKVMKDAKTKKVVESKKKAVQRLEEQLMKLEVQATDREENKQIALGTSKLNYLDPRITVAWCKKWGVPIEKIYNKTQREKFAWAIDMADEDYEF

[2] = biological target: T1, DNA topoisomerase 1 (Homo sapiens); assay: Inhibition of human topoisomerase-1 assessed as inhibition of relaxation of supercoiled pBR322 plasmid DNA at 20 uM measured after 1 hr by ethidium bromide staining based agarose gel electrophoresis relative to control
[3] = Antiproliferative activity against human DU145 cells measured after 72 hrs by CCK8 assay; assay type: functional, cell-based; conditions: DU-145, 72 h
[4] = Antiproliferative activity against human T47D cells measured after 72 hrs by CCK8 assay; assay type: functional, cell-based
[5] = biological target: DNA topoisomerase 2-alpha (Homo sapiens) (UniProt P11388); assay: Inhibition of human topoisomerase-2 alpha assessed as inhibition of relaxation of supercoiled pBR322 plasmid DNA at 20 uM measured after 1 hr by ethidium bromide staining based agarose gel electrophoresis relative to control
DNA topoisomerase 2-alpha (Homo sapiens), sequence (P11388 whole entry): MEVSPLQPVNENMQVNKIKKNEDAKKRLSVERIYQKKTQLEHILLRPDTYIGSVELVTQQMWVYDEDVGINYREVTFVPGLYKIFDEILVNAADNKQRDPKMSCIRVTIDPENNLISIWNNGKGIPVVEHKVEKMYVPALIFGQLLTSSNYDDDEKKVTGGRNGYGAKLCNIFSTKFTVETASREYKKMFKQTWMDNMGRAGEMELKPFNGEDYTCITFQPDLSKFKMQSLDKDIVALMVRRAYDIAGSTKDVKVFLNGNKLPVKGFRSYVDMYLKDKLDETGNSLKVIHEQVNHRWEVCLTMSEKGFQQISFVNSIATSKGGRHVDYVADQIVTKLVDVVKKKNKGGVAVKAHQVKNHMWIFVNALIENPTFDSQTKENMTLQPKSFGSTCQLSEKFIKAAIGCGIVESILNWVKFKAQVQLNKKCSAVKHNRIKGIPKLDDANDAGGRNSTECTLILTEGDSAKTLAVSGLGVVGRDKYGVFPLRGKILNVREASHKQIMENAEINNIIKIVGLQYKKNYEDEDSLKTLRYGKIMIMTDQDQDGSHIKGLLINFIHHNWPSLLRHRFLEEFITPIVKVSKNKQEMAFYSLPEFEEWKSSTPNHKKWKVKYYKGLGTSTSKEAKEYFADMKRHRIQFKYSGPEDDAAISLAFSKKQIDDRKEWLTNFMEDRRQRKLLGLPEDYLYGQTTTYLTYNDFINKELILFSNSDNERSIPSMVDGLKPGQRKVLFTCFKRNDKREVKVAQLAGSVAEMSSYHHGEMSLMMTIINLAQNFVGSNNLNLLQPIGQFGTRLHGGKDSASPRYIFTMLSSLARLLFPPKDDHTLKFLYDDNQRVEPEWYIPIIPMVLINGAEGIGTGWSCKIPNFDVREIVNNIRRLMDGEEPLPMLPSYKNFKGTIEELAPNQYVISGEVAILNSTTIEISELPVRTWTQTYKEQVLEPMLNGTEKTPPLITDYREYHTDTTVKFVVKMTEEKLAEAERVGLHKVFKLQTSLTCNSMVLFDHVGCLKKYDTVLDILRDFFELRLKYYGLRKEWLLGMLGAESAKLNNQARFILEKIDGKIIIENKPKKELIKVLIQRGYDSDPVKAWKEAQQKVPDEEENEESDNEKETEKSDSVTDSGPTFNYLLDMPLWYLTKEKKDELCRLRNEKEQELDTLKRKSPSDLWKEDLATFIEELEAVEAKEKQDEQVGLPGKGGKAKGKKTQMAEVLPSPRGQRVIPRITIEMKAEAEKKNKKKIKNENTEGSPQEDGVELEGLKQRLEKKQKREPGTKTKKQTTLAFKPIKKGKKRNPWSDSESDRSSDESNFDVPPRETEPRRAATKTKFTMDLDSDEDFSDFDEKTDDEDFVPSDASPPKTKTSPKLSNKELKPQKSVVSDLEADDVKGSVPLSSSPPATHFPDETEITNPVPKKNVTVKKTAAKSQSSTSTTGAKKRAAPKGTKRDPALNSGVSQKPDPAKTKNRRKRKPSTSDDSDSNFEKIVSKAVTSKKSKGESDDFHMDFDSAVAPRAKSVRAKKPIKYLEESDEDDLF

[6] = biological target: DNA topoisomerase 2-alpha (Homo sapiens) (UniProt P11388); assay: Inhibition of human topoisomerase-2 alpha assessed as inhibition of relaxation of supercoiled pBR322 plasmid DNA at 100 uM measured after 1 hr by ethidium bromide staining based agarose gel electrophoresis relative to control
[7] = Antiproliferative activity against human MCF7 cells measured after 72 hrs by CCK8 assay; assay type: functional, cell-based; conditions: MCF7, 72 h
[8] = Antiproliferative activity against human HCT15 cells measured after 72 hrs by CCK8 assay; assay type: functional, cell-based; conditions: HCT-15, 72 h
[9] = biological target: DNA topoisomerase 2-alpha (Homo sapiens) (UniProt P11388); assay: Poison activity at topoisomerase-2 alpha in human T47D cells assessed as DNA damage by measuring DNA tail length at 5 uM measured after 24 hrs by alkaline comet assay; assay type: cell-based
[10] = Cell cycle arrest in human T47D cells assessed as accumulation at G2/M phase at 10 uM after 5 hrs by DAPI staining-based cell analyzer (reference value: 18 to 20%); assay type: functional
[11] = Cell cycle arrest in human T47D cells assessed as accumulation at G1 phase at 10 uM after 10 hrs by DAPI staining-based cell analyzer (reference value: 47 to 50%); assay type: functional
[12] = Cell cycle arrest in human T47D cells assessed as accumulation at G2/M phase at 10 uM after 10 hrs by DAPI staining-based cell analyzer (reference value: 18 to 20%); assay type: functional
[13] = Cell cycle arrest in human T47D cells assessed as accumulation at G1 phase at 10 uM by DAPI staining based cell analyzer; assay type: functional; conditions: TDE = time-dependent effect
[14] = Cell cycle arrest in human T47D cells assessed as accumulation at G1 phase at 1 uM after 24 hrs by DAPI staining-based cell analyzer (reference value: 51%); assay type: functional
[15] = Cell cycle arrest in human T47D cells assessed as accumulation at S phase at 10 uM after 24 hrs by DAPI staining-based cell analyzer (reference value: 26%); assay type: functional
[16] = Cell cycle arrest in human T47D cells assessed as decrease in cyclin D1 level measured after 24 hrs; assay type: functional, cell-based
T47D [17] = assay: Induction of apoptosis in human T47D cells assessed as increase in cleaved PARP level measured after 24 hrs by Western blot analysis; assay type: functional, cell-based
[18] = Cell cycle arrest in human T47D cells assessed as increase in p27kip1 level measured after 24 hrs; assay type: functional, cell-based
T47D [19] = assay: Induction of apoptosis in human T47D cells assessed as increase in bax level measured after 24 hrs by Western blot analysis; assay type: functional, cell-based
[20] = Cell cycle arrest in human T47D cells assessed as accumulation at G1 phase at 10 uM after 20 hrs by DAPI staining-based cell analyzer (reference value: 47 to 50%); assay type: functional
[21] = Cell cycle arrest in human T47D cells assessed as accumulation at S phase at 3 uM after 24 hrs by DAPI staining-based cell analyzer (reference value: 26%); assay type: functional
[22] = Cell cycle arrest in human T47D cells assessed as accumulation at S phase at 1 uM after 24 hrs by DAPI staining-based cell analyzer (reference value: 26%); assay type: functional
[23] = biological target: DNA topoisomerase 2-alpha (Homo sapiens) (UniProt P11388); assay: Inhibition of topoisomerase-2 alpha catalytic activity in human T47D cells assessed as appearance of free protein band at 50 uM measured after 2 hrs by Western blot analysis; assay type: cell-based
[24] = Cell cycle arrest in human T47D cells assessed as accumulation at G1 phase at 10 uM after 24 hrs by DAPI staining-based cell analyzer (reference value: 51%); assay type: functional
[25] = Cell cycle arrest in human T47D cells assessed as accumulation at G2/M phase at 10 uM after 20 hrs by DAPI staining-based cell analyzer (reference value: 18 to 20%); assay type: functional
[26] = Cell cycle arrest in human T47D cells assessed as accumulation at G1 phase at 10 uM after 15 hrs by DAPI staining-based cell analyzer (reference value: 47 to 50%); assay type: functional
[27] = Cell cycle arrest in human T47D cells assessed as accumulation at G2/M phase at 1 uM after 24 hrs by DAPI staining-based cell analyzer (reference value: 15%); assay type: functional
[28] = Cell cycle arrest in human T47D cells assessed as accumulation at G1 phase at 3 uM after 24 hrs by DAPI staining-based cell analyzer (reference value: 51%); assay type: functional
[29] = Cell cycle arrest in human T47D cells assessed as accumulation at G2/M phase at 10 uM after 24 hrs by DAPI staining-based cell analyzer (reference value: 15%); assay type: functional
[30] = Cell cycle arrest in human T47D cells assessed as accumulation at S phase at 10 uM after 20 hrs by DAPI staining-based cell analyzer (reference value: 22%); assay type: functional
[31] = Cell cycle arrest in human T47D cells assessed as decrease in cyclin D1 level at 10 uM; assay type: functional, cell-based; conditions: TDE = time-dependent effect
[32] = biological target: DNA topoisomerase 2-alpha (Homo sapiens) (UniProt P11388); assay: Poison activity at topoisomerase-2 alpha in human T47D cells assessed as DNA damage by measuring DNA tail length at 10 uM measured after 24 hrs by alkaline comet assay; assay type: cell-based
T47D [33] = assay: Induction of apoptosis in human T47D cells assessed as decrease in bcl-2 level measured after 24 hrs by Western blot analysis; assay type: functional, cell-based
[34] = Cell cycle arrest in human T47D cells assessed as accumulation at S phase at 10 uM after 10 hrs by DAPI staining-based cell analyzer (reference value: 22%); assay type: functional
[35] = Cell cycle arrest in human T47D cells assessed as accumulation at G2/M phase at 3 uM after 24 hrs by DAPI staining-based cell analyzer (reference value: 15%); assay type: functional
[36] = Cell cycle arrest in human T47D cells assessed as increase in p27kip1 level at 10 uM; assay type: functional, cell-based; conditions: TDE = time-dependent effect
[37] = Cell cycle arrest in human T47D cells assessed as accumulation at S phase at 10 uM after 5 hrs by DAPI staining-based cell analyzer (reference value: 22%); assay type: functional
[38] = Cell cycle arrest in human T47D cells assessed as accumulation at G2/M phase at 10 uM after 15 hrs by DAPI staining-based cell analyzer (reference value: 18 to 20%); assay type: functional
[39] = Cell cycle arrest in human T47D cells assessed as accumulation at S phase at 10 uM after 15 hrs by DAPI staining-based cell analyzer (reference value: 22%); assay type: functional
[40] = Cell cycle arrest in human T47D cells assessed as accumulation at G1 phase at 10 uM after 5 hrs by DAPI staining-based cell analyzer (reference value: 47 to 50%); assay type: functional
Bos taurus = organism: Bos taurus; assay: Displacement of ethidium bromide from calf thymus DNA measured after 30 mins by fluorescence quenching assay

CCOc1ccc2c(c1)Oc1cc(OC(=O)c3ccccc3[N+](=O)[O-])ccc1C21c2ccccc2C(=O)N1/N=C/c1ccc(Cl)cc1Cl (stereo not given)
inhibition [1]: 98%
inhibition [2]: 77%
IC50 [3]: 6740 nM
IC50 [4]: > 50000 nM
inhibition [5]: 2.9%
inhibition [6]: 83.8%
IC50 [7]: > 50000 nM
IC50 [8]: 6250 nM

CCOc1ccc2c(c1)Oc1cc(O)ccc1C21c2ccccc2C(=O)N1/N=C/c1ccc(O)cc1 (stereo not given)
inhibition [1]: 36.5%
inhibition [2]: 0%
IC50 [3]: 1060 nM
IC50 [4]: 780 nM
inhibition [5]: 3.3%
inhibition [6]: 73.8%
IC50 [7]: 4660 nM
IC50 [8]: 30 nM

CCOc1ccc2c(c1)Oc1cc(O)ccc1C21c2ccccc2C(=O)N1/N=C/c1ccccc1O (stereo not given)
Activity [9]: 7.76 pixel
Activity [10]: 14%
Activity [11]: 55%
Activity [12]: 13%
inhibition [1]: 39.5%
Activity [13]: Tde
Activity [14]: 54%
Activity [15]: 22%
Activity [16]: Dose-dependent effect
Activity (T47D [17]): Dose-dependent effect
Activity [18]: Dose-dependent effect
Activity (T47D [19]): Dose-dependent effect
inhibition [2]: 28.1%
Activity [20]: 62%
Activity [21]: 25%
Activity [22]: 28%
inhibition [23]: Active
IC50 [3]: 550 nM
Activity [24]: 60%
IC50 [4]: 430 nM
inhibition [5]: 1.9%
Activity [25]: 10%
Activity [26]: 57%
Activity [27]: 14%
Activity [28]: 59%
Activity [29]: 11%
Activity [30]: 20%
Activity [31]: Tde
Activity [32]: 8.56 pixel
inhibition [6]: 78.7%
Activity (T47D [33]): Dose-dependent effect
IC50 [7]: 4740 nM
IC50 [8]: 1840 nM
Activity [34]: 22%
Activity [35]: 11%
Activity [36]: Tde
Activity [37]: 21%
Activity [38]: 10%
Activity [39]: 21%
Activity [40]: 51%

CCOc1ccc2c(c1)Oc1cc(O)ccc1C21c2ccccc2C(=O)N1/N=C/c1ccc(OC)c(O)c1 (stereo not given)
inhibition [1]: 77.8%
inhibition [2]: 4.2%
IC50 [3]: 1930 nM
IC50 [4]: 1610 nM
inhibition [5]: 2.7%
inhibition [6]: 37.9%
IC50 [7]: 3640 nM
IC50 [8]: 290 nM

COc1cc(NS(C)(=O)=O)ccc1Nc1c2ccccc2nc2ccccc12
inhibition (Bos taurus): Dose-dependent effect
